Measured values: ChEMBL document CHEMBL1201862, “PubChem BioAssay data set” (2004)
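Method: 48-hour compound exposure of cells in 96-well plates, five concentrations, linear interpolation of endpoints. GI50 = concentration required for 50% inhibition of growth.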 Calls of active or inactive are those of the source. Rule as the data show it: active = GI50 up to about 1.1 µM and inactive = higher.

Tests used:
Test in all cases: DTP human tumour cell line panel, 48 h
[1] = tested on: OVCAR-8
[2] = tested on: NCI-H226
[3] = tested on: OVCAR-4
[4] = tested on: HOP-62
[5] = tested on: MOLT-4
[6] = tested on: HOP-92
[7] = tested on: SNB-19
[8] = tested on: PC-3
[9] = tested on: TK-10
[10] = tested on: SR
[11] = tested on: NCI-H522
[12] = tested on: A498
[13] = tested on: NCI/ADR-RES
[14] = tested on: SF-295
[15] = tested on: OVCAR-3
[16] = tested on: Hs-578T
[17] = tested on: EKVX
[18] = tested on: UO-31
[19] = tested on: SNB-75

Structure (SMILES)	GI50 [1]	GI50 [2]	GI50 [3]	GI50 [4]	GI50 [5]	GI50 [6]	GI50 [7]	GI50 [8]	GI50 [9]	GI50 [10]	GI50 [11]	GI50 [12]	GI50 [13]	GI50 [14]	GI50 [15]	GI50 [16]	GI50 [17]	GI50 [18]	GI50 [19]
COc1cc(NCCC(=O)O)c2ncccc2c1	> 100 µM (inactive)	> 100 µM (inactive)	> 100 µM (inactive)	> 100 µM (inactive)	> 100 µM (inactive)	> 100 µM (inactive)	> 100 µM (inactive)	> 100 µM (inactive)	> 100 µM (inactive)	> 100 µM (inactive)	> 100 µM (inactive)	> 100 µM (inactive)	> 100 µM (inactive)	> 100 µM (inactive)	> 100 µM (inactive)	23.9 µM (inactive)	> 100 µM (inactive)	> 100 µM (inactive)	–
COC(=O)/C=C(\C)CC/C=C(\C)CCC1OC1(C)C (configuration not stated)	12.9 µM (inactive)	12.1 µM (inactive)	11.8 µM (inactive)	15.8 µM (inactive)	8.17 µM (inactive)	11.9 µM (inactive)	44.7 µM (inactive)	8.36 µM (inactive)	12.4 µM (inactive)	8.79 µM (inactive)	–	14.5 µM (inactive)	13.9 µM (inactive)	11.3 µM (inactive)	11.7 µM (inactive)	16.1 µM (inactive)	13 µM (inactive)	10.7 µM (inactive)	17.4 µM (inactive)
Cc1cc(C)c2c(c1)CC1(Cc3c(ccc(C)c3C)C1=O)C2=O (configuration not stated)	> 100 µM (inactive)	> 100 µM (inactive)	> 100 µM (inactive)	–	> 100 µM (inactive)	> 100 µM (inactive)	> 100 µM (inactive)	> 100 µM (inactive)	> 100 µM (inactive)	> 100 µM (inactive)	> 100 µM (inactive)	> 100 µM (inactive)	> 100 µM (inactive)	> 100 µM (inactive)	> 100 µM (inactive)	> 100 µM (inactive)	> 100 µM (inactive)	> 100 µM (inactive)	> 100 µM (inactive)
O=[N+]([O-])c1cccnc1NCC1(CO)CC(Cc2ccccc2)C1 (configuration not stated)	> 100 µM (inactive)	80.4 µM (inactive)	> 100 µM (inactive)	> 100 µM (inactive)	> 100 µM (inactive)	11.1 µM (inactive)	–	> 100 µM (inactive)	> 100 µM (inactive)	> 100 µM (inactive)	> 100 µM (inactive)	> 100 µM (inactive)	> 100 µM (inactive)	> 100 µM (inactive)	> 100 µM (inactive)	> 100 µM (inactive)	77.6 µM (inactive)	74 µM (inactive)	> 100 µM (inactive)
O=C(CC(C(=O)c1cccs1)c1ccc2c(c1)OCO2)c1ccccc1 (configuration not stated)	> 100 µM (inactive)	> 100 µM (inactive)	> 100 µM (inactive)	> 100 µM (inactive)	–	> 100 µM (inactive)	> 100 µM (inactive)	> 100 µM (inactive)	19.6 µM (inactive)	70.1 µM (inactive)	> 100 µM (inactive)	> 100 µM (inactive)	> 100 µM (inactive)	> 100 µM (inactive)	> 100 µM (inactive)	> 100 µM (inactive)	–	> 100 µM (inactive)	> 100 µM (inactive)
CCN(CC)Cc1ccc(C(=S)Nc2ccc(C)cc2)s1	14.8 µM (inactive)	–	21.6 µM (inactive)	17.5 µM (inactive)	13 µM (inactive)	–	19 µM (inactive)	14.3 µM (inactive)	–	12.1 µM (inactive)	14.6 µM (inactive)	13.3 µM (inactive)	19.2 µM (inactive)	13.8 µM (inactive)	21.2 µM (inactive)	1.84 µM (inactive)	16.2 µM (inactive)	15.5 µM (inactive)	–
C[C@]12CC/C(=N\O)C=C1CC[C@@H]1[C@@H]2CC[C@]2(C)C(=N/O)/C(=C/c3ccc([N+](=O)[O-])cc3)C[C@@H]12	–	12.9 µM (inactive)	4.73 µM (inactive)	18.4 µM (inactive)	2.55 µM (inactive)	3.3 µM (inactive)	7.5 µM (inactive)	4.8 µM (inactive)	6.41 µM (inactive)	2.79 µM (inactive)	2.59 µM (inactive)	13 µM (inactive)	5.13 µM (inactive)	3.56 µM (inactive)	2.61 µM (inactive)	3.5 µM (inactive)	–	2.67 µM (inactive)	6 µM (inactive)
CCN(CC)CCOc1ccc(N2C(=O)c3cccc4cc([N+](=O)[O-])cc(c34)C2=O)cc1	10.9 µM (inactive)	3.79 µM (inactive)	16.3 µM (inactive)	1.14 µM (inactive)	1.67 µM (inactive)	20 µM (inactive)	12.8 µM (inactive)	6.73 µM (inactive)	13.3 µM (inactive)	0.372 µM (active)	4.75 µM (inactive)	9.62 µM (inactive)	16.8 µM (inactive)	6.55 µM (inactive)	–	14.7 µM (inactive)	16.3 µM (inactive)	9.12 µM (inactive)	14.5 µM (inactive)
Cc1ccc(NC(=O)/C(=N\NC(N)=O)c2c(O)c3ccccc3[nH]c2=O)cc1	> 100 µM (inactive)	> 100 µM (inactive)	> 100 µM (inactive)	–	> 100 µM (inactive)	> 100 µM (inactive)	> 100 µM (inactive)	> 100 µM (inactive)	–	> 100 µM (inactive)	–	> 100 µM (inactive)	> 100 µM (inactive)	> 100 µM (inactive)	> 100 µM (inactive)	> 100 µM (inactive)	–	> 100 µM (inactive)	99.8 µM (inactive)
C=C[C@H]1CN2CCc3c([nH]c4c([C@@H]5CCCN5C)c(O)ccc34)[C@@H]2C[C@@H]1C[C@H]1c2[nH]c3ccccc3c2CCN1C	1.4 µM (inactive)	2.05 µM (inactive)	1.71 µM (inactive)	1.35 µM (inactive)	0.692 µM (active)	1.4 µM (inactive)	1.64 µM (inactive)	1.47 µM (inactive)	1.57 µM (inactive)	0.256 µM (active)	1.85 µM (inactive)	1.85 µM (inactive)	1.85 µM (inactive)	1.57 µM (inactive)	1.64 µM (inactive)	1.67 µM (inactive)	–	1.63 µM (inactive)	1.22 µM (inactive)
CC1=C(C)C2(C#N)C(=O)N3C(=NC(c4ccco4)NC3c3ccco3)C2(C#N)C(c2ccco2)N1 (configuration not stated)	> 100 µM (inactive)	> 100 µM (inactive)	> 100 µM (inactive)	> 100 µM (inactive)	> 100 µM (inactive)	> 100 µM (inactive)	> 100 µM (inactive)	> 100 µM (inactive)	> 100 µM (inactive)	> 100 µM (inactive)	> 100 µM (inactive)	> 100 µM (inactive)	> 100 µM (inactive)	> 100 µM (inactive)	–	> 100 µM (inactive)	> 100 µM (inactive)	> 100 µM (inactive)	–
O=c1[nH]nc(-c2ccccc2)n1O	> 100 µM (inactive)	> 100 µM (inactive)	> 100 µM (inactive)	> 100 µM (inactive)	> 100 µM (inactive)	> 100 µM (inactive)	> 100 µM (inactive)	> 100 µM (inactive)	> 100 µM (inactive)	> 100 µM (inactive)	> 100 µM (inactive)	> 100 µM (inactive)	> 100 µM (inactive)	> 100 µM (inactive)	> 100 µM (inactive)	> 100 µM (inactive)	> 100 µM (inactive)	> 100 µM (inactive)	–
Nc1ncc(/C=N/O)c(NCC2(CO)CC(CCc3ccccc3)C2)n1 (configuration not stated)	11.1 µM (inactive)	12.9 µM (inactive)	8.26 µM (inactive)	11.3 µM (inactive)	3.36 µM (inactive)	12.4 µM (inactive)	–	13.9 µM (inactive)	> 10 µM (inactive)	4.36 µM (inactive)	3.22 µM (inactive)	11 µM (inactive)	5.82 µM (inactive)	1.02 µM (active)	11 µM (inactive)	22.4 µM (inactive)	–	5.45 µM (inactive)	14.5 µM (inactive)
O=[N+]([O-])c1cccc2c(/N=N/c3ccc4ccccc4c3O)c(O)cc(S(=O)(=O)O)c12	21.1 µM (inactive)	22.6 µM (inactive)	57.9 µM (inactive)	18.2 µM (inactive)	5.21 µM (inactive)	55.7 µM (inactive)	> 100 µM (inactive)	18.8 µM (inactive)	49.7 µM (inactive)	2.82 µM (inactive)	7.36 µM (inactive)	–	17 µM (inactive)	20.9 µM (inactive)	3.47 µM (inactive)	> 100 µM (inactive)	79.3 µM (inactive)	6.03 µM (inactive)	44 µM (inactive)
C=C(C)C(=O)OC1C[C@H](COC(C)=O)C2CC=C(CO)C2C2OC(=O)C(=C)[C@H]12 (some centres not stated)	> 100 µM (inactive)	> 100 µM (inactive)	–	> 100 µM (inactive)	13.8 µM (inactive)	–	> 100 µM (inactive)	> 100 µM (inactive)	74.6 µM (inactive)	23.2 µM (inactive)	19.1 µM (inactive)	> 100 µM (inactive)	45.4 µM (inactive)	> 100 µM (inactive)	42.4 µM (inactive)	> 100 µM (inactive)	> 100 µM (inactive)	39.2 µM (inactive)	69.2 µM (inactive)
COc1cc(-c2oc3c(OC)cc(OC)c(O)c3c(=O)c2OC)cc(OC)c1OC	5.21 µM (inactive)	> 100 µM (inactive)	2.23 µM (inactive)	2.06 µM (inactive)	> 100 µM (inactive)	15.6 µM (inactive)	3.82 µM (inactive)	9.57 µM (inactive)	> 100 µM (inactive)	> 100 µM (inactive)	3.38 µM (inactive)	–	5.46 µM (inactive)	2.59 µM (inactive)	4.79 µM (inactive)	2.93 µM (inactive)	> 100 µM (inactive)	33 µM (inactive)	1.73 µM (inactive)
